The source of these data is patent US9550796B2, “Pyrrolopyrrolone derivatives and their use as BET inhibitors” (NOVARTIS AG, priority 2013, dated 2017).

Experiment [1] deals with BRD4 (Homo sapiens (Human), UniProt O60885). Put plainly: TR-FRET in-vitro binding assay for BRD4. Conditions: 45 nM His-Brd4(44-477), acetyl-histone H4 (AcK 5, 8, 12, 16) peptide. An outline of the steps: (§1)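 TR-FRET binding read after 35 min incubation at 30° C. Compounds dispensed from 90% DMSO solutions and tested at 8 concentrations in a 13.55 μL total reaction volume.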

Experiment [2] has as its target BRD2 (Homo sapiens (Human), UniProt P25440). Put plainly: TR-FRET in-vitro binding assay for BRD2. Conditions: 45 nM His-Brd2(60-472), acetyl-histone H4 (AcK 5, 8, 12, 16) peptide. The method, boiled down:
as §1

Experiment [3] concerns the target BRD3 (Homo sapiens (Human), UniProt Q15059). Put plainly: TR-FRET in-vitro binding assay for BRD3. To be noted: 45 nM His-Brd3(20-477), acetyl-histone H4 (AcK 5, 8, 12, 16) peptide. An outline of the steps: as §1
The target in experiment [4] is CREBBP (Homo sapiens (Human), UniProt Q92793). Put plainly: AlphaScreen in-vitro binding assay for CREBBP. To be noted: 324 nM His-CREBBP (1081-1197), acetyl-histone H4 (AcK 5, 8, 12) peptide. An outline of the steps:
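IC50 values were derived by non-linear regression of percent inhibition across 8 compound concentrations. Protein was His-tagged CREBBP bromodomain (1081-1197), peptide acetyl-histone H4 (AcK 5, 8, 12), in HEPES pH 7.5 buffer. Read-out was AlphaScreen with Ni-chelate acceptor and streptavidin donor beads, 35 min at 30° C then 60 min at RT.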

The test system of experiment [5] is MV-4-11. As to the kind of experiment: Cell growth inhibition assay (CellTiter-Glo), MV-4-11. The experiment is classed as cell-based, human. To be noted: MV-4-11 cells, 4 days; for GI50: Homo sapiens, MV4-11, 96 h, half-maximal growth inhibition; for MV-4-11 TGI: total growth inhibition. The method, boiled down:
(§2)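 A separate day 0 plate allows cytotoxic and cytostatic effects to be distinguished: viable-cell ATP after 4-day compound treatment (top 10 μM, 3-fold steps) is expressed relative to it. DMSO-only wells count as 100% and medium-only wells as −100%.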

Experiment [6] deals with THP-1. Put plainly: Cell growth inhibition assay (CellTiter-Glo), THP-1. The experiment is classed as cell-based, human. Conditions: THP-1 cells, 4 days; for GI50: Homo sapiens, 96 h, half-maximal growth inhibition; for THP-1 TGI: total growth inhibition. An outline of the steps: as §2
For experiment [7], the system named is K-562. As to the kind of experiment: Cell growth inhibition assay (CellTiter-Glo), K-562. The experiment is classed as cell-based, human. Conditions: K-562 cells, 4 days; for GI50: Homo sapiens, K562, 96 h, half-maximal growth inhibition; for K-562 TGI: total growth inhibition. An outline of the steps: as §2

The structures appear in SMILES notation. pIC50: −log10 of the molar value.

Sequence of BRD3 (Q15059 20-477): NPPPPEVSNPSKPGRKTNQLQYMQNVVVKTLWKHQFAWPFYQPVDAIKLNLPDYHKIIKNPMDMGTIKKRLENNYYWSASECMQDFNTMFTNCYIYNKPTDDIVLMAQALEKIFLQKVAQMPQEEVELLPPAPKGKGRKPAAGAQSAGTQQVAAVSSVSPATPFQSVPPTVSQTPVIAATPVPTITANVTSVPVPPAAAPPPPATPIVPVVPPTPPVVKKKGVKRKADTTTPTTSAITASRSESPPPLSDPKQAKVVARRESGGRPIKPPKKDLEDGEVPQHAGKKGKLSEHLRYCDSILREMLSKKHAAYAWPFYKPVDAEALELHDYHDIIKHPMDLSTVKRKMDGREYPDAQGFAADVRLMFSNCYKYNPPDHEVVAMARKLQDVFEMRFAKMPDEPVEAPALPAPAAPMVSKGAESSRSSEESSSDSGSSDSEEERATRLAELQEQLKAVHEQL
Sequence of BRD2 (P25440 60-472): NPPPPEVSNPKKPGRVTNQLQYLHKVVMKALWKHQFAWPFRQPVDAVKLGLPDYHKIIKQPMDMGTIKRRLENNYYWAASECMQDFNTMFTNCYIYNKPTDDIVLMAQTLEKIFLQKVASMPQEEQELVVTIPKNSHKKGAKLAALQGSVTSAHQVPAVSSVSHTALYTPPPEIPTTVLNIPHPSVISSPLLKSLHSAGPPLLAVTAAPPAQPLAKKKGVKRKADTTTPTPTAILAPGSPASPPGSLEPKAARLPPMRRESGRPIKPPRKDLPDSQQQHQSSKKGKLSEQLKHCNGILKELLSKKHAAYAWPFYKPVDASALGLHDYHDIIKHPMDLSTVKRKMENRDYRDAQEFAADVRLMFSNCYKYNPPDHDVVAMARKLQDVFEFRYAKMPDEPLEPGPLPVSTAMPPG
Sequence of CREBBP (Q92793 1081-1197): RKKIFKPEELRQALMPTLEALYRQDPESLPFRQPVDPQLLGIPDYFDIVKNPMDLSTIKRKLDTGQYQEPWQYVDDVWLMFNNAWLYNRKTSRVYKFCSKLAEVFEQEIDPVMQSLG

For the molecule `Cc1c[nH]c2c1C(=O)N(c1cc(C)c3nnc(C)n3c1)C2c1ccc(Cl)cc1` (centres unmarked) [Example 3, 6-(4-chlorophenyl)-5-(3,8-dimethyl-[1,2,4]triazolo[4,3-a]pyridin-6-yl)-3-methyl-5,6-dihydropyrrolo[3,4-b]pyrrol-4(1H)-one], the pIC50 in experiment [1] was 7.85; in experiment [2], 7.62; in experiment [3], 7.80; in experiment [4], 5.09. Besides, the GI50 in experiment [5] stood at 7.68 nM; in experiment [6] it was 15.7 nM; in experiment [7], 55.4 nM. Besides, the “MV-4-11 TGI” value in experiment [5] worked out at 18.75 nM. The “THP-1 TGI” value in experiment [6] is 36.9 nM. Besides, the “K-562 TGI” value in experiment [7] is above 10000 nM.

As for `Cn1c(-c2cccc(=O)n2C)cc2c1C(c1ccc(Cl)cc1)N(c1cc(Cl)c(=O)n(C)c1)C2=O` (centres unmarked) [Example 44, 5-(5-chloro-1-methyl-6-oxo-1,6-dihydropyridin-3-yl)-6-(4-chlorophenyl)-1-methyl-2-(1-methyl-6-oxo-1,6-dihydropyridin-2-yl)-5,6-dihydropyrrolo[3,4-b]pyrrol-4(1H)-one], the pIC50 in experiment [1] was 7.18; in experiment [2], 7.27; in experiment [3] it was 7.39; in experiment [4], 6.51. Also, the GI50 in experiment [5] came out at 264 nM; in experiment [6] it was 1420 nM; in experiment [7], 2590 nM. For the same molecule, the “MV-4-11 TGI” value in experiment [5] amounted to 391 nM. For the same molecule, the “THP-1 TGI” value in experiment [6] is 2700 nM. In experiment [7], the “K-562 TGI” value is above 10000 nM.

`COc1cccc(-c2cc3c(n2C)C(c2ccc(Cl)cc2)N(c2cc(C)c(=O)n(C)c2)C3=O)n1` (centres unmarked) [Example 59, 6-(4-chlorophenyl)-5-(1,5-dimethyl-6-oxo-1,6-dihydropyridin-3-yl)-2-(6-methoxypyridin-2-yl)-1-methyl-5,6-dihydropyrrolo[3,4-b]pyrrol-4(1H)-one]: the negative-log IC50 (pIC50) in experiment [1] was 7.14; in experiment [2], 7.10; in experiment [3], 7.11; in experiment [4] it was 6.03. The GI50 came to 74 nM in experiment [5], 86.3 nM in experiment [6] and 297 nM in experiment [7]. Moreover, the “MV-4-11 TGI” value in experiment [5] was determined as 106 nM. In addition, the “THP-1 TGI” value in experiment [6] was 136 nM. In addition, in experiment [7], the “K-562 TGI” value is above 10000 nM.

Turning to `CCOC(=O)Nc1cn(C)c2c1C(=O)N(c1cc(C)c3nnn(C)c3n1)C2c1ccc(Cl)cc1` (centres unmarked) [Example 97, Ethyl (6-(4-chlorophenyl)-5-(3,7-dimethyl-3H-[1,2,3]triazolo[4,5-b]pyridin-5-yl)-1-methyl-4-oxo-1,4,5,6-tetrahydropyrrolo[3,4-b]pyrrol-3-yl)carbamate], the pIC50 is 7.46 in experiment [1], 7.82 in experiment [2], above 7.96 in experiment [3] and below 4.43 in experiment [4]. Moreover, the GI50 in experiment [5] came out at 13.7 nM; in experiment [6], 17.9 nM; in experiment [7], 48.7 nM. In addition, in experiment [5], the “MV-4-11 TGI” value came to 24.95 nM. The “THP-1 TGI” value in experiment [6] amounted to 33.45 nM. Moreover, in experiment [7], the “K-562 TGI” value is above 10000 nM.

On to `Cc1cc(N2C(=O)c3cc(-c4cccn(C)c4=O)[nH]c3C2c2ccc(Cl)cc2)cn2c(C)nnc12` (centres unmarked) [Example 25, 6-(4-chlorophenyl)-5-(3,8-dimethyl-[1,2,4]triazolo[4,3-a]pyridin-6-yl)-2-(1-methyl-2-oxo-1,2-dihydropyridin-3-yl)-5,6-dihydropyrrolo[3,4-b]pyrrol-4(1H)-one], for which the negative-log IC50 (pIC50) in experiment [1] is 7.77; in experiment [2], 7.42; in experiment [3], 7.64; in experiment [4], 5.36. Also, the 50% growth inhibitory concentration (GI50) in experiment [5] was determined as 36.8 nM; in experiment [6], 39.2 nM; in experiment [7], 156 nM. Besides, the “MV-4-11 TGI” value in experiment [5] was 58.15 nM. Further, the “THP-1 TGI” value in experiment [6] turned out to be 94.9 nM. Also, the “K-562 TGI” value in experiment [7] is above 10000 nM.

As to `Cc1cc(N2C(=O)c3ccn(C)c3C2c2ccc(Cl)c(F)c2)cn(C)c1=O` (centres unmarked) [Example 80, 6-(4-chloro-3-fluorophenyl)-5-(1,5-dimethyl-6-oxo-1,6-dihydropyridin-3-yl)-1-methyl-5,6-dihydropyrrolo[3,4-b]pyrrol-4(1H)-one], the negative logarithm of the IC50 (pIC50) was 6.81 in experiment [1], 6.54 in experiment [2], 6.83 in experiment [3] and 5.82 in experiment [4]. The GI50 came to 148 nM in experiment [5], 146 nM in experiment [6] and 455 nM in experiment [7]. The “MV-4-11 TGI” value in experiment [5] was 267 nM. Besides, the “THP-1 TGI” value in experiment [6] was 369.5 nM. The “K-562 TGI” value in experiment [7] was above 10000 nM.

Regarding `Cc1cn(C(=O)N(C)C)c2c1C(=O)N(c1cc(C)c3nnc(C)n3c1)C2c1ccc(Cl)cc1` (centres unmarked) [Example 10, 6-(4-chlorophenyl)-5-(3,8-dimethyl-[1,2,4]triazolo[4,3-a]pyridin-6-yl)-N,N,3-trimethyl-4-oxo-5,6-dihydropyrrolo[3,4-b]pyrrole-1(4H)-carboxamide], the negative logarithm of the IC50 (pIC50) was 7.48 in experiment [1], 7.26 in experiment [2], 7.47 in experiment [3] and 4.84 in experiment [4]. Besides, the concentration for 50% growth inhibition (GI50) in experiment [5] came to 19.4 nM; in experiment [6], 29.8 nM; in experiment [7], 102 nM. For the same molecule, the “MV-4-11 TGI” value in experiment [5] came to 36.25 nM. Further, in experiment [6], the “THP-1 TGI” value is 69.85 nM. In addition, the “K-562 TGI” value in experiment [7] is above 10000 nM.

Turning to `Cc1cc(N2C(=O)c3cc(-c4cccn(C)c4=O)n(C)c3C2c2ccc(Cl)cc2)cn(C)c1=O` (centres unmarked) [Example 47, 6-(4-chlorophenyl)-5-(1,5-dimethyl-6-oxo-1,6-dihydropyridin-3-yl)-1-methyl-2-(1-methyl-2-oxo-1,2-dihydropyridin-3-yl)-5,6-dihydropyrrolo[3,4-b]pyrrol-4(1H)-one], the negative logarithm of the IC50 (pIC50) in experiment [1] was 6.85; in experiment [2], 6.96; in experiment [3], 7.09; in experiment [4], 6.16. Moreover, the figures for the 50% growth inhibitory concentration (GI50) in experiment [5], in experiment [6] and in experiment [7] were 98.4 nM, 195 nM and 698 nM, respectively. In addition, the “MV-4-11 TGI” value in experiment [5] came out at 156 nM. For the same molecule, the “THP-1 TGI” value in experiment [6] is 351 nM. In addition, in experiment [7], the “K-562 TGI” value was above 10000 nM.

For `Cn1ccc2c1C(c1ccc(C#N)cc1)N(c1cc(Cl)c(=O)n(C)c1)C2=O` (centres unmarked) [Example 89, 4-(5-(5-chloro-1-methyl-6-oxo-1,6-dihydropyridin-3-yl)-1-methyl-4-oxo-1,4,5,6-tetrahydropyrrolo[3,4-b]pyrrol-6-yl)benzonitrile], the pIC50 in experiment [1] is 6.45; in experiment [2], 6.64; in experiment [3], 6.68; in experiment [4], 4.97. The values for the 50% growth inhibitory concentration (GI50) in experiment [5], in experiment [6] and in experiment [7] were 402 nM, 598 nM and 1910 nM, respectively. For the same molecule, the “MV-4-11 TGI” value in experiment [5] came to 785 nM. For the same molecule, in experiment [6], the “THP-1 TGI” value turned out to be 2015 nM. The “K-562 TGI” value in experiment [7] is above 10000 nM.

Turning to `CC(=O)Nc1cn(C)c2c1C(=O)N(c1cc(C)c3nnn(C)c3n1)C2c1ccc(Cl)cc1` (centres unmarked) [Example 96, N-(6-(4-chlorophenyl)-5-(3,7-dimethyl-3H-[1,2,3]triazolo[4,5-b]pyridin-5-yl)-1-methyl-4-oxo-1,4,5,6-tetrahydropyrrolo[3,4-b]pyrrol-3-yl)acetamide], the pIC50 in experiment [1] is 7.80; in experiment [2] it was 7.44; in experiment [3], 7.77; in experiment [4] it was below 4.43. The GI50 in experiment [5] amounted to 10.9 nM; in experiment [6], 11.2 nM; in experiment [7] it was 32.8 nM. Besides, the “MV-4-11 TGI” value in experiment [5] was found to be 21.2 nM. For the same molecule, the “THP-1 TGI” value in experiment [6] came to 21.25 nM. Moreover, the “K-562 TGI” value in experiment [7] was above 10000 nM.

With `CC(=O)N1CC(n2cc(C3CC3)c3c2C(c2ccc(Cl)cc2)N(c2cc(C)c4nnc(C)n4c2)C3=O)C1` (centres unmarked) [Example 17, 1-(1-acetylazetidin-3-yl)-6-(4-chlorophenyl)-3-cyclopropyl-5-(3,8-dimethyl-[1,2,4]triazolo[4,3-a]pyridin-6-yl)-5,6-dihydropyrrolo[3,4-b]pyrrol-4(1H)-one], the pIC50 is above 7.96 in experiment [1], above 7.96 in experiment [2], above 7.96 in experiment [3] and 5.39 in experiment [4]. For the same molecule, the GI50 in experiment [5] was found to be 11.1 nM; in experiment [6], 43.3 nM; in experiment [7], 230 nM. Besides, the “MV-4-11 TGI” value in experiment [5] amounted to 34.85 nM. The “THP-1 TGI” value in experiment [6] turned out to be 168 nM. Moreover, the “K-562 TGI” value in experiment [7] is above 10000 nM.
